Measurements published in patent US9695462B2, “Method for evaluation of drug efficacy of a medicine having a therapeutic or preventive effect against a disease related to EL activity and a method for screening an inhibitor of EL activity” (SHIONOGI & CO., LTD., priority 2012, dated 2017).

Target: T1, mouse EL (Mus musculus, UniProt Q9WVG5)
T1 construct: made in house; host or cells: Freestyle 293F cells (pcDNA-DEST40 vector)
T1 sequence (Q9WVG5 21-500): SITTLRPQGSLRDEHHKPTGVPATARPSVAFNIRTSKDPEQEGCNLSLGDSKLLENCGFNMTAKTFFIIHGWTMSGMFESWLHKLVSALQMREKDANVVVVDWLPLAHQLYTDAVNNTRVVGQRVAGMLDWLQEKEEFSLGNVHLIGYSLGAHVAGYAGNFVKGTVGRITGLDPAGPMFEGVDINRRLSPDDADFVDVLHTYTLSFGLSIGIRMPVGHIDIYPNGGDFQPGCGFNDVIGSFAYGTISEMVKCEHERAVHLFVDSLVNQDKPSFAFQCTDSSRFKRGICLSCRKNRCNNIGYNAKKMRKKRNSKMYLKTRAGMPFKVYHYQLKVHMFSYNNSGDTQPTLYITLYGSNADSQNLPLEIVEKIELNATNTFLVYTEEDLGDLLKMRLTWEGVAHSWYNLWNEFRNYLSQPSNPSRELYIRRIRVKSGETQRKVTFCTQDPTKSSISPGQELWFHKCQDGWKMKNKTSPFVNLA
Experiment: Inhibition of mouse EL activity using phosphatidylinositol-HDL as a substrate (NEFA production)
Type: biochemical
Settings: 37° C. for 2 hr, FIG. 5
Protocol: Phosphatidylinositol (Avanti Polar Lipids Inc.) in chloroform was collected the necessary amount, which was completely evaporated the solvent to dryness under nitrogen. After addition of PBS, phosphatidylinositol-HDL induced phosphatidylinositol (2.5 mg/ml) into HDL (5 mg/ml) was prepared by mixing phosphatidylinositol vesicle prepared by sonication on ice with human HDL (Athens Research & Technology, Inc.) and incubating at 4° C. for 24 hr. The pcDNA-DEST40 (Invitrogen Corp.) cloned DNA encoding mouse EL was transfected into Freestyle 293F cells and the cells were cultured at 37° C. for 2 days in an atmosphere of 8% CO2. The cells were collected by centrifugation of the culture medium, suspended in Freestyle 293 Expression Medium (Invitrogen Corp.) containing 20 U/ml heparin and incubated at 37° C. for 45 min. After that, the supernatant obtained by removing the cells by centrifugation was used as mouse EL enzyme solution. […] After reaction at 37° C. for 2 hr, the amount of NEFA produced from substrate by EL was measured with NEFA C-test Wako (Wako Pure Chemical Industries, Ltd.) and the amount of NEFA (absorbance) was assumed an index of enzyme activity. The enzyme activity was calculated by subtracting the background value equivalent to the amount of endogenous NEFA without mouse EL enzyme solution from the value measured in enzyme reaction of EL (FIG. 4).

inhibitory activity against mouse EL (inhibition rate): dose-dependent inhibition
Compound: CCCCCCCCCCC[C@@H](C[C@@H]1OC(=O)[C@H]1CCCCCC)OC(=O)[C@H](CC(C)C)NC=O [orlistat]
